Values quoted from earlier work as cited in patent US20060198830A1, “Ubiquinone composition and a container for its convenient transport and storage” (priority 2005, published 2006).

Conditions: administration of 300-1200 mg/day of CoQ10

## COC1=C(OC)C(=O)C(C/C=C(\C)CC/C=C(\C)CC/C=C(\C)CC/C=C(\C)CC/C=C(\C)CC/C=C(\C)CC/C=C(\C)CC/C=C(\C)CC/C=C(\C)CCC=C(C)C)=C(C)C1=O [CoQ10, Ubiquinone]
  plasma CoQ10 concentrations: 3 to 4 µg/mL
